The target in the test is T1, human TRPM8 (Homo sapiens, UniProt Q7Z2W7).
T1 construct: expressed in transfected cells
The test can be described thus: In Vitro human TRPM8 Functional Assay (intracellular Ca2+, Fluo4, FDSS, menthol activation). The format is cell-based. The conditions noted are these: HEK293 cells stably expressing human TRPM8; activation with L-(-)-Menthol; 11-point dose-response. The gist of the method: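 Fluo4-loaded HEK293 cells stably expressing TRPM8 were preincubated with compound for 5 min at room temperature, then stimulated with L-menthol (20 μl of 90 μM stock) while fluorescence was read. IC50 values come from 11-point curves fitted to the mean of duplicate wells.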

Data on 34 compounds can be found in patent US20120094964A1, “SULFAMOYL BENZOIC ACID DERIVATIVES AS TRPM8 ANTAGONISTS” (priority 2009, published 2012).

Usually IC50 stands for the concentration that gives 50% inhibition.

T1 sequence (Q7Z2W7 whole entry): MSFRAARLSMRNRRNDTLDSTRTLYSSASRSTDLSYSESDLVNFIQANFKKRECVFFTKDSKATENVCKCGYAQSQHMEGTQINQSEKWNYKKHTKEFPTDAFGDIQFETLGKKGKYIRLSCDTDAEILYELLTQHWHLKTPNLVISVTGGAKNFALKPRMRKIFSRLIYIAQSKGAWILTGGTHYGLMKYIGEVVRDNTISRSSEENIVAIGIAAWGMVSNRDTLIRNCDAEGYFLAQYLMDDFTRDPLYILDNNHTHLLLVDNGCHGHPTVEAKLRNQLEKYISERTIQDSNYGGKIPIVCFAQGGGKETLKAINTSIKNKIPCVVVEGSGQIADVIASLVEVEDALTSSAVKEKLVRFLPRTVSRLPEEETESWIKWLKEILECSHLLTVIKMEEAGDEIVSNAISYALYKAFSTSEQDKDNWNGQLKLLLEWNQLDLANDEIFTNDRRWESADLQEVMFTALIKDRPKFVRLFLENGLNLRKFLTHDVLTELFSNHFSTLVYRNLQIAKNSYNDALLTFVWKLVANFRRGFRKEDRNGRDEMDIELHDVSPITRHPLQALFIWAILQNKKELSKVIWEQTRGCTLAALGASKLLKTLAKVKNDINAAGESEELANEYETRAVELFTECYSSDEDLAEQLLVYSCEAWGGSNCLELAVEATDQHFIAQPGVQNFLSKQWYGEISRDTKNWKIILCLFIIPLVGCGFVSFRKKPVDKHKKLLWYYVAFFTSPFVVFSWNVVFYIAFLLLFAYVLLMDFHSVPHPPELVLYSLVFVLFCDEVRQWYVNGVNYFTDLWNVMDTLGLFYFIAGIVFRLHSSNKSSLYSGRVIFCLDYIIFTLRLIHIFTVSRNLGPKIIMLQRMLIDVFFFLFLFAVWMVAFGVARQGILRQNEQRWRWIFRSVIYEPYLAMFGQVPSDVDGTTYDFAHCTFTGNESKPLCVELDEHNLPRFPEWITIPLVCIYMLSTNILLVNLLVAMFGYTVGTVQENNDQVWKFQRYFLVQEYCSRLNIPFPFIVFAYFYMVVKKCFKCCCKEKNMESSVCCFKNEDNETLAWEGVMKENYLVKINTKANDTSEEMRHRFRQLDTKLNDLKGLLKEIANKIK

Take `COc1ccc(-c2ccc(CN(c3ncc(C(F)(F)F)cc3Cl)S(=O)(=O)c3ccc(C(=O)O)cc3)cc2)cn1` [Example 162, 4-(N-(3-chloro-5-(trifluoromethyl)pyridin-2-yl)-N-(4-(6-methoxypyridin-3-yl)-benzyl)sulfamoyl)benzoic acid]: the IC50 was less than 1000 nM.

Regarding `Cc1ccc(-c2ccc(CN(c3ncc(C(F)(F)F)cc3Cl)S(=O)(=O)c3ccc(C(=O)O)cc3)cc2)cn1` [Example 163, 4-(N-(3-chloro-5-(trifluoromethyl)pyridin-2-yl)-N-(4-(6-methylpyridin-3-yl)benzyl)sulfamoyl)benzoic acid], the IC50 was less than 1000 nM.

Compound `O=C(O)c1ccc(S(=O)(=O)N(Cc2cccc(-c3ccccc3)c2)c2ncc(C(F)(F)F)cc2Cl)cc1` [Example 164, 4-(N-[(1,1′-Biphenyl]-3-ylmethyl)-N-(3-chloro-5-(trifluoromethyl)pyridin-2-yl)sulfamoyl)benzoic acid] returned an IC50 of less than 1000 nM.

Compound `O=C(O)c1ccc(S(=O)(=O)N(Cc2ccccc2-c2ccccc2)c2ncc(C(F)(F)F)cc2Cl)cc1` [Example 165, 4-(N-([1,1′-Biphenyl]-2-ylmethyl)-N-(3-chloro-5-(trifluoromethyl)pyridin-2-yl)sulfamoyl)benzoic acid] displayed an IC50 of less than 1000 nM.

Turning to `C[C@H](c1ccccc1)N(c1ncc(C(F)(F)F)cc1Cl)S(=O)(=O)c1ccc(C(=O)O)cc1` [Example 166, (R)-4-(N-(3-Chloro-5-(trifluoromethyl)pyridin-2-yl)-N-(1-phenylethyl)sulfamoyl)benzoic acid], the half-inhibitory concentration (IC50) was less than 1000 nM.

For the compound `O=C(O)c1ccc(S(=O)(=O)N(Cc2cccs2)c2ncc(C(F)(F)F)cc2Cl)cc1` [Example 167, 4-(N-(3-Chloro-5-(trifluoromethyl)pyridin-2-yl)-N-(thiophen-2-ylmethyl)sulfamoyl)benzoic acid], the half-inhibitory concentration (IC50) is less than 1000 nM.

For the compound `O=C(O)c1ccc(S(=O)(=O)N(Cc2ccc(Oc3ccccc3)cc2)c2ncc(C(F)(F)F)cc2Cl)cc1` [Example 169, 4-(N-(3-Chloro-5-(trifluoromethyl)pyridin-2-yl)-N-(4-phenoxybenzyl)sulfamoyl)benzoic acid], the IC50 was less than 1000 nM.

In turn, `O=C(O)c1ccc(S(=O)(=O)N(Cc2ccc(-n3cccn3)cc2)c2ncc(C(F)(F)F)cc2Cl)cc1` [Example 170, 4-(N-(4-(1H-Pyrazol-1-yl)benzyl)-N-(3-chloro-5-(trifluoromethyl)pyridin-2-yl)sulfamoyl)benzoic acid] displayed an IC50 of less than 1000 nM.

As for `O=C(O)c1ccc(S(=O)(=O)N(CC2CCC2)c2ncc(C(F)(F)F)cc2Cl)cc1` [Example 171, 4-(N-(3-Chloro-5-(trifluoromethyl)pyridin-2-yl)-N-(cyclobutylmethyl)sulfamoyl)benzoic acid], the IC50 is less than 1000 nM.

`O=C(O)c1ccc(S(=O)(=O)N(Cc2ccsc2)c2ncc(C(F)(F)F)cc2Cl)cc1` [Example 172, 4-(N-(3-Chloro-5-(trifluoromethyl)pyridin-2-yl)-N-(thiophen-3-ylmethyl)sulfamoyl)benzoic acid]: the IC50 is less than 1000 nM.

In the case of `N#Cc1ccc(S(=O)(=O)N(Cc2ccccc2)c2ncc(C(F)(F)F)cc2Cl)cc1` [Example 173, N-Benzyl-N-(3-chloro-5-(trifluoromethyl)pyridin-2-yl)-4-cyanobenzenesulfonamide], the IC50 was less than 1000 nM.

For the compound `O=S(=O)(c1ccc(-c2nn[nH]n2)cc1)N(Cc1ccccc1)c1ncc(C(F)(F)F)cc1Cl` [Example 174, N-Benzyl-N-(3-chloro-5-(trifluoromethyl)pyridin-2-yl)-4-(2H-tetrazol-5-yl)benzenesulfonamide], the IC50 was less than 1000 nM.

For the compound `COc1ccc(S(=O)(=O)N(Cc2ccccc2)c2ncc(C(F)(F)F)cc2Cl)cc1` [Example 175, N-Benzyl-N-(3-chloro-5-(trifluoromethyl)pyridin-2-yl)-4-methoxybenzenesulfonamide], the 50% inhibitory concentration (IC50) was less than 1000 nM.

Consider `CS(=O)(=O)NCc1ccc(S(=O)(=O)N(Cc2ccccc2)c2ncc(C(F)(F)F)cc2Cl)cc1` [Example 176, N-Benzyl-N-(3-chloro-5-(trifluoromethyl)pyridin-2-yl)-4-(methylsulfonamidomethyl)benzenesulfonamide], for which the half-maximal inhibitory concentration (IC50) was less than 1000 nM.

Turning to `CC(=O)NCc1ccc(S(=O)(=O)N(Cc2ccccc2)c2ncc(C(F)(F)F)cc2Cl)cc1` [Example 177, N-(4-(N-Benzyl-N-(3-chloro-5-(trifluoromethyl)pyridin-2-yl)sulfamoyl)benzyl)acetamide], the IC50 is less than 1000 nM.

Compound `CN(C)S(=O)(=O)NCc1ccc(S(=O)(=O)N(Cc2ccccc2)c2ncc(C(F)(F)F)cc2Cl)cc1` [Example 178, N-Benzyl-N-(3-chloro-5-(trifluoromethyl)pyridin-2-yl)-4-(((N,N-dimethylsulfamoyl)amino)methyl)benzenesulfonamide] gave a 50% inhibitory concentration (IC50) of less than 1000 nM.

`CN(C)C(=O)NCc1ccc(S(=O)(=O)N(Cc2ccccc2)c2ncc(C(F)(F)F)cc2Cl)cc1` [Example 179, N-Benzyl-N-(3-chloro-5-(trifluoromethyl)pyridin-2-yl)-4-((3,3-dimethylureido)methyl)benzene sulfonamide] yielded a half-maximal inhibitory concentration (IC50) of less than 1000 nM.

Take `O=C(O)c1ccc(S(=O)(=O)N(Cc2ccccc2)c2ncc(Br)cc2Cl)cc1` [Example 180, 4-(N-Benzyl-N-(5-bromo-3-chloropyridin-2-yl)sulfamoyl)benzoic acid]: the IC50 was less than 1000 nM.

In turn, `O=C(O)c1ccc(S(=O)(=O)N(Cc2ccccc2)c2ncc(C(F)(F)F)cc2Cl)c(Cl)c1` [Example 181, 4-(N-Benzyl-N-(3-chloro-5-(trifluoromethyl)pyridin-2-yl)sulfamoyl)-3-chlorobenzoic acid] registered a half-maximal inhibitory concentration (IC50) of less than 1000 nM.

`O=C(O)c1ccc(S(=O)(=O)N(Cc2ccccc2)c2ncc(-c3ccco3)cc2Cl)cc1` [Example 183, 4-(N-Benzyl-N-(3-chloro-5-(furan-2-yl)pyridin-2-yl)sulfamoyl)benzoic acid] came in with a 50% inhibitory concentration (IC50) of less than 1000 nM.

Regarding `O=C(O)c1ccc(S(=O)(=O)N(Cc2ccccc2)c2ncc(-c3ccsc3)cc2Cl)cc1` [Example 184, 4-(N-Benzyl-N-(3-chloro-5-(thiophen-3-yl)pyridin-2-yl)sulfamoyl)benzoic acid], the IC50 was less than 1000 nM.

Compound `COc1ccccc1-c1cnc(N(Cc2ccccc2)S(=O)(=O)c2ccc(C(=O)O)cc2)c(Cl)c1` [Example 185, 4-(N-Benzyl-N-(3-chloro-5-(2-methoxyphenyl)pyridin-2-yl)sulfamoyl)benzoic acid] returned an IC50 of less than 1000 nM.

Compound `COc1ccc(-c2cnc(N(Cc3ccccc3)S(=O)(=O)c3ccc(C(=O)O)cc3)c(Cl)c2)cc1` [Example 186, 4-(N-Benzyl-N-(3-chloro-5-(4-methoxyphenyl)pyridin-2-yl)sulfamoyl)benzoic acid] gave an IC50 of less than 1000 nM.

`COc1cccc(-c2cnc(N(Cc3ccccc3)S(=O)(=O)c3ccc(C(=O)O)cc3)c(Cl)c2)c1` [Example 187, 4-(N-Benzyl-N-(3-chloro-5-(3-methoxyphenyl)pyridin-2-yl)sulfamoyl)benzoic acid]: the IC50 was less than 1000 nM.

In turn, `O=C(O)c1ccc(S(=O)(=O)N(Cc2ccccc2)c2ncc(C(F)(F)F)cc2Cl)cc1Cl` [Example 188, 4-(N-Benzyl-N-(3-chloro-5-(trifluoromethyl)pyridin-2-yl)sulfamoyl)-2-chlorobenzoic acid] displayed a 50% inhibitory concentration (IC50) of less than 1000 nM.

Compound `COc1ccc(S(=O)(=O)N(Cc2ccccc2)c2ncc(C(F)(F)F)cc2Cl)cn1` [Example 189, N-Benzyl-N-(3-chloro-5-(trifluoromethyl)pyridin-2-yl)-6-methoxypyridine-3-sulfonamide] returned a half-maximal inhibitory concentration (IC50) of less than 1000 nM.

`O=C(O)c1ccc(S(=O)(=O)N(Cc2ccccc2)c2ncc(C(F)(F)F)cc2Cl)c(F)c1` [Example 190, 4-(N-Benzyl-N-(3-chloro-5-(trifluoromethyl)pyridin-2-yl)sulfamoyl)-3-fluorobenzoic acid] yielded an IC50 of less than 1000 nM.

With `O=C(O)c1ccc(S(=O)(=O)N(Cc2ccccc2)c2ncc(C(F)(F)F)cc2Cl)cc1F` [Example 191, 4-(N-Benzyl-N-(3-chloro-5-(trifluoromethyl)pyridin-2-yl)sulfamoyl)-2-fluorobenzoic acid], the IC50 is less than 1000 nM.

`O=C(O)c1ccc(S(=O)(=O)N(CC2CCCC2)c2ncc(C(F)(F)F)cc2Cl)cc1` [Example 192, 4-(N-(3-Chloro-5-(trifluoromethyl)pyridin-2-yl)-N-(cyclopentylmethyl)sulfamoyl)benzoic acid] yielded an IC50 of less than 1000 nM.

As to `O=C(O)c1ccc(S(=O)(=O)N(c2ncc(C(F)(F)F)cc2Cl)C2(c3ccccc3)CC2)cc1` [Example 193, 4-(N-(3-Chloro-5-(trifluoromethyl)pyridin-2-yl)-N-(1-phenylcyclopropyl)sulfamoyl)benzoic acid], the IC50 is less than 1000 nM.

Compound `CN(C)S(=O)(=O)Nc1ccc(S(=O)(=O)N(Cc2ccccc2)c2ncc(C(F)(F)F)cc2Cl)cc1` [Example 194, N-Benzyl-N-(3-chloro-5-(trifluoromethyl)pyridin-2-yl)-4-((N,N-dimethylsulfamoyl)amino)benzenesulfonamide] registered an IC50 of less than 1000 nM.

`NC(=O)Nc1ccc(S(=O)(=O)N(Cc2ccccc2)c2ncc(C(F)(F)F)cc2Cl)cc1` [Example 195, N-Benzyl-N-(3-chloro-5-(trifluoromethyl)pyridin-2-yl)-4-ureidobenzenesulfonamide] registered a 50% inhibitory concentration (IC50) of less than 1000 nM.

For `NS(=O)(=O)Nc1ccc(S(=O)(=O)N(Cc2ccccc2)c2ncc(C(F)(F)F)cc2Cl)cc1` [Example 196, N-Benzyl-N-(3-chloro-5-(trifluoromethyl)pyridin-2-yl)-4-(sulfamoylamino)benzenesulfonamide], the half-inhibitory concentration (IC50) was less than 1000 nM.

`C[C@@H](c1ccccc1)N(c1ncc(C(F)(F)F)cc1Cl)S(=O)(=O)c1ccc(C(=O)O)cc1` [Example 197, (S)-4-(N-(3-Chloro-5-(trifluoromethyl)pyridin-2-yl)-N-(1-phenylethyl)sulfamoyl)benzoic acid] had a 50% inhibitory concentration (IC50) of less than 1000 nM.
